US20050060764A1, “Mouse model for bone metabolism” (priority 2003, published 2005)
Strand notation (5' to 3'): a small letter for the sugar, then the base; units joined by * are phosphorothioate-linked, units joined directly phosphodiester-linked; [ ] holds rarer units or linkages, { } end groups; capitals alone tell only the bases. e = 2'-O-(2-methoxyethyl) (MOE); [5mC] = 5-methylcytosine; d = 2'-deoxy (DNA)

Tested on: mouse RANKL mRNA
Assay: Antisense inhibition of mouse RANKL mRNA levels in C2C12 cells, quantitative real-time PCR (Table 2)
Assay type: cell-based
Design: concentration or dose not given beside the values
Conditions: averages from three experiments
Protocol: Cells were seeded into 24-well plates (Falcon-353047 at a density of ˜10,000 cells/cm^2 for use in antisense oligonucleotide transfection.
Cells are treated and data are obtained in triplicate. […] Cells were harvested 16-24 hours after oligonucleotide treatment.
PCR reagents were obtained from Invitrogen Corporation, (Carlsbad, Calif.).
Probes and primers to mouse RANKL were designed to hybridize to a mouse RANKL sequence, using published sequence information (GenBank accession number AF013170.1, incorporated herein as SEQ ID NO:ll). For mouse RANKL the PCR primers were: • forward primer: […] (SEQ ID NO:12) • reverse primer: […] (SEQ ID NO: 13) and • the PCR probe was: FAM-[…]-TAMRA (SEQ ID NO: 14) where FAM is the fluorescent reporter dye and TAMRA is the quencher dye. For mouse GAPDH the PCR primers were: • forward primer: […](SEQ ID NO:15) • reverse primer: […](SEQ ID NO:16) and the • PCR probe was: 5′ JOE-[…]-TAMRA 3′ (SEQ ID NO: 17) where JOE is the fluorescent reporter dye and TAMRA is the quencher dye.
In accordance with the present invention, a second series of antisense compounds was designed to target different regions of the mouse RANKL RNA, using published sequences (GenBank accession number AF013170.1, incorporated herein as SEQ ID NO: 11). […] All cytidine residues are 5-methylcytidines. […] If present “N.D.” indicates “no data”.

Substance	% INHIB (inhibition of mouse RANKL mRNA levels)
180803 (antisense eT*e[5mC]*eT*eT*e[5mC]*dA*d[5mC]*dT*d[5mC]*dT*d[5mC]*d[5mC]*dA*dG*dA*eG*eT*e[5mC]*eG*eA) [compound 180803]	55%
atgctaatttcttcaccagc (antisense eA*eT*eG*e[5mC]*eT*dA*dA*dT*dT*dT*d[5mC]*dT*dT*d[5mC]*dA*e[5mC]*e[5mC]*eA*eG*e[5mC]) [ISIS 180811, 2′-MOE gapmer targeted to mouse RANKL]	at least 40%
180822 (antisense eA*eA*eT*e[5mC]*eA*dA*dA*dT*dA*d[5mC]*dT*dA*dT*dA*dG*e[5mC]*eA*e[5mC]*eA*eA) [compound 180822]	24%
agcagactccgccacggccc (antisense eA*eG*e[5mC]*eA*eG*dA*d[5mC]*dT*d[5mC]*d[5mC]*dG*d[5mC]*d[5mC]*dA*d[5mC]*eG*eG*e[5mC]*e[5mC]*e[5mC]) [ISIS 180790, 2′-MOE gapmer targeted to mouse RANKL]	at least 40%
180797 (antisense eT*e[5mC]*eT*e[5mC]*eG*dG*d[5mC]*dT*dG*dG*d[5mC]*d[5mC]*d[5mC]*dG*dG*e[5mC]*eG*e[5mC]*eA*eT) [compound 180797]	60%
180798 (antisense e[5mC]*e[5mC]*eT*eT*e[5mC]*dG*dT*dG*dT*dG*dG*dG*dA*d[5mC]*dG*e[5mC]*e[5mC]*eG*eG*eG) [compound 180798]	34%
180823 (antisense eT*eA*eA*eA*eT*dA*dT*dT*dT*dT*dG*dA*dA*dT*d[5mC]*eA*eA*eA*eT*eA) [compound 180823]	9%
180826 (antisense eT*eA*e[5mC]*eA*eA*dA*dG*dT*dG*d[5mC]*dA*d[5mC]*d[5mC]*dA*dG*eT*eT*eA*eA*eA) [compound 180826]	33%
tcagtggcacatgtccaggg (antisense eT*e[5mC]*eA*eG*eT*dG*dG*d[5mC]*dA*d[5mC]*dA*dT*dG*dT*d[5mC]*e[5mC]*eA*eG*eG*eG) [ISIS 180818, 2′-MOE gapmer targeted to mouse RANKL]	at least 40%
180833 (antisense e[5mC]*eA*eG*eA*eG*dA*d[5mC]*dA*dA*dT*dG*d[5mC]*dT*dT*dT*eT*eA*eT*eT*eG) [compound 180833]	22%
180811 (antisense eA*eT*eG*e[5mC]*eT*dA*dA*dT*dT*dT*d[5mC]*dT*dT*d[5mC]*dA*e[5mC]*e[5mC]*eA*eG*e[5mC]) [compound 180811]	67%
gttcacaaaggtcctggcag (antisense eG*eT*eT*e[5mC]*eA*d[5mC]*dA*dA*dA*dG*dG*dT*d[5mC]*d[5mC]*dT*eG*eG*e[5mC]*eA*eG) [ISIS 180788, 2′-MOE gapmer targeted to mouse RANKL]	at least 40%
180830 (antisense eT*eG*eA*eA*eA*dG*dG*d[5mC]*dA*d[5mC]*d[5mC]*dT*dG*dG*dT*eG*eA*e[5mC]*e[5mC]*eA) [compound 180830]	5%
cctgacagatttcagtagcc (antisense e[5mC]*e[5mC]*eT*eG*eA*d[5mC]*dA*dG*dA*dT*dT*dT*d[5mC]*dA*dG*eT*eA*eG*e[5mC]*e[5mC]) [ISIS 180831, 2′-MOE gapmer targeted to mouse RANKL]	at least 40%
180792 (antisense eT*eG*e[5mC]*eT*e[5mC]*d[5mC]*dG*d[5mC]*dG*dA*dT*d[5mC]*dG*dT*dT*e[5mC]*eT*e[5mC]*eT*e[5mC]) [compound 180792]	77%

Tested on: rat RANKL mRNA
Assay: Antisense inhibition of rat RANKL mRNA levels in UMR-106 cells, quantitative real-time PCR (Table 3)
Assay type: cell-based
Design: concentration or dose not given beside the values
Conditions: averages from three experiments
Method in brief: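 UMR-106 cells transfected with antisense oligonucleotides (5-methylcytidine throughout) in triplicate, harvested 16-24 h after treatment. RANKL mRNA quantified by real-time RT-PCR with a FAM/TAMRA probe, using rat GAPDH (JOE/TAMRA probe) as the reference.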

Substance	% INHIB (inhibition of rat RANKL mRNA levels)
atcttggcccagcctcgatc (eA*eT*e[5mC]*eT*eT*dG*dG*d[5mC]*d[5mC]*d[5mC]*dA*dG*d[5mC]*d[5mC]*dT*e[5mC]*eG*eA*eT*e[5mC]; antisense) [ISIS 286614, 2′-MOE gapmer targeted to rat RANKL]	at least 40%
cttagtagtcttacacatgt (e[5mC]*eT*eT*eA*eG*dT*dA*dG*dT*d[5mC]*dT*dT*dA*d[5mC]*dA*e[5mC]*eA*eT*eG*eT; antisense) [ISIS 286645, 2′-MOE gapmer targeted to rat RANKL]	at least 40%
tcagtctatgtcttgaactt (eT*e[5mC]*eA*eG*eT*d[5mC]*dT*dA*dT*dG*dT*d[5mC]*dT*dT*dG*eA*eA*e[5mC]*eT*eT; antisense) [ISIS 286642, 2′-MOE gapmer targeted to rat RANKL]	at least 40%
286587 (antisense eG*e[5mC]*eG*e[5mC]*eA*dG*dG*dT*dA*d[5mC]*dT*dT*dG*d[5mC]*d[5mC]*eG*eT*eA*eG*eT) [compound 286587]	50%
cccaaagtacgtcgcatctt (e[5mC]*e[5mC]*e[5mC]*eA*eA*dA*dG*dT*dA*d[5mC]*dG*dT*d[5mC]*dG*d[5mC]*eA*eT*e[5mC]*eT*eT; antisense) [ISIS 286639, 2′-MOE gapmer targeted to rat RANKL]	at least 40%
gcgatgctgcagaccacctg (antisense eG*e[5mC]*eG*eA*eT*dG*d[5mC]*dT*dG*d[5mC]*dA*dG*dA*d[5mC]*d[5mC]*eA*e[5mC]*e[5mC]*eT*eG) [ISIS 286588, 2′-MOE gapmer targeted to rat RANKL]	at least 40%
aaaccatcatttctctgcaa (eA*eA*eA*e[5mC]*e[5mC]*dA*dT*d[5mC]*dA*dT*dT*dT*d[5mC]*dT*d[5mC]*eT*eG*e[5mC]*eA*eA; antisense) [ISIS 286653, 2′-MOE gapmer targeted to rat RANKL]	at least 40%
286604 (antisense eT*e[5mC]*e[5mC]*eA*eG*dA*dG*dT*d[5mC]*dG*dA*dG*dT*d[5mC]*d[5mC]*eT*eG*e[5mC]*eA*eA) [compound 286604]	68%
aaagccccaaagtacgtcgc (eA*eA*eA*eG*e[5mC]*d[5mC]*d[5mC]*d[5mC]*dA*dA*dA*dG*dT*dA*d[5mC]*eG*eT*e[5mC]*eG*e[5mC]; antisense) [ISIS 286640, 2′-MOE gapmer targeted to rat RANKL]	at least 40%
286605 (antisense eT*eT*eT*eG*e[5mC]*dA*d[5mC]*dG*dG*d[5mC]*d[5mC]*d[5mC]*d[5mC]*dT*dT*eG*eA*eA*eA*eG) [compound 286605]	53%
286630 (antisense eT*eT*eT*eT*eA*dA*d[5mC]*dG*dA*d[5mC]*dA*dT*dA*dT*dA*e[5mC]*e[5mC]*eA*eT*e[5mC]) [compound 286630]	44%
286657 (e[5mC]*e[5mC]*eA*eG*eT*dT*dA*dA*dA*dT*dA*d[5mC]*dA*dT*d[5mC]*eT*eT*eG*eA*e[5mC]; antisense) [compound 286657]	10%
ggttaacccttagttttccg (eG*eG*eT*eT*eA*dA*d[5mC]*d[5mC]*d[5mC]*dT*dT*dA*dG*dT*dT*eT*eT*e[5mC]*e[5mC]*eG; antisense) [ISIS 286619, 2′-MOE gapmer targeted to rat RANKL]	at least 40%
